Like-named read-outs stand apart in the source and are kept apart here. Some results are limits rather than exact numbers.

The source of these data is patent US20060241098A1, “Pesticidal n-substituted azacyclic derivatives” (priority 2003, published 2006).

Data set [1] has as its system cotton aphid (Aphis gossypii). Briefly: Translaminar insecticidal activity test on cotton leaves, N-oxides versus free amines. It is filed as in vivo. To be noted: for mortality at 500 ppm: Aphis gossypii. The procedure:
Certain N-Substituted azacyclic compounds where the N-substituent is O^− (the N-oxides) of the present invention were tested to determine their translaminar characteristics as evidenced by activity against cotton aphid (Aphis gossypii) in comparison with their corresponding free amine derivatives. These tests were conducted in the following manner: For each compound tested, one cotton plant with two mature leaves was selected. On the top of one of the leaves a sticky material used for trapping insects was applied using a stamp of about 2.5 centimeters in diameter. The process was repeated on the bottom of the second leaf of the cotton plant. A solution of 500 ppm of test compound (dissolved in 1:1 acetone and water containing a small amount of surfactant) was then applied to the entire side of each leaf opposite the side stamped with the sticky material using a saturated cotton swab. Upon completion of the application of the test compounds, the cotton plants were maintained in a growth chamber for about 18 hours. After this time the leaves of the test plant were infested with a known number of cotton aphids by placing an infested leaf cutting from the cotton aphid colony directly over the sticky material on each leaf. The leaf cutting on the bottom of a leaf of the test plant was secured to the leaf with a pin. The treated and infested cotton plants were then maintained in a chamber, during which time they were evaluated at daily intervals of from one to up to eight days. A test compound was termed active (A) if the top and bottom of the leaves of the test plant were mostly free of aphids (80% to 100%) when compared to untreated controls. […]

A further data set has as its system cotton aphid. Briefly: Residual insecticidal activity test on sprayed cotton plants. It is filed as in vivo, Aphis gossypii. To be noted: 72 h exposure; for Percent Mortality 3 DAT (greenhouse) / Percent Mortality 3 DAT (simulated sunlight): 3 day residual; for Percent Mortality 3 DAT (greenhouse) / Percent Mortality 5 DAT (greenhouse): greenhouse environment; for Percent Mortality 3 DAT (simulated sunlight): simulated sunlight environment; for Percent Mortality 0 DAT: infested 0 days after treatment; for Percent Mortality 5 DAT (greenhouse): 5 day residual. The procedure:
Certain N-Substituted azacyclic compounds where the N-substituent is O^− (the N-oxides) of the present invention were also tested to determine their residual insecticidal activity. These tests were conducted in the following manner:
For each rate of application of test compound, a 15 mL aliquot of test solution was prepared. Sufficient test compound was dissolved in 1.5 mL of acetone to provide an application rate as high as 1200 grams/Ha. Each solution was then added to 13.5 mL of water containing 300 ppm of a surfactant. There were four replicates for each rate of application of test compound, and all tests included a known chemical standard as well as a standard of water and untreated checks.
A maximum of 14 appropriately sized cotton plants for each rate of application and replicate were arranged in a 28 pot plastic flat and sprayed with the 15 mL sample of test compound using an traveling boom sprayer equipped with a cone spray tip at a rate of 30 gallons/acre under a pressure of 40-44 psi. The untreated checks were sprayed first, followed by the test compounds and standards, all in order of lowest to highest rates of application. Once the spraying was complete, the test plants were allowed to air-dry on the conveyor on which they were sprayed.
In the test to determine residual activity (0 Day Residual) one set of dry plants was infested with leaf cuttings covered with about 25 cotton aphids taken from cotton plants in an aphid colony. The cotton plants were then maintained in a greenhouse or in an atmosphere of simulated direct sunlight for 72 hours after which time cotton aphid mortality was determined.
A second set of dry test plants treated with test compounds were maintained for three days (3 Day Residual), then infested with cotton aphid. The infested plants were maintained and evaluated for cotton aphid mortality after 72 hours as set forth above. Other residual activity periods are optionally evaluated also, for example a 5 day residual.
At the end of the 72 hour exposure period the numbers of live insects were counted a percent mortality of aphids was calculated based on the number of live insects present and the number that were infested onto the plants.

Where [2] appears, read: 24 h, read-out: Percent Mortality at Day After treatment (DAT), 1 DAT.
Setting [3] is: 72 h, read-out: Percent Mortality at Day After treatment (DAT), 3 DAT.
[4] abbreviates: 96 h, read-out: Percent Mortality at Day After treatment (DAT), 4 DAT.
Setting [5] is: 120 h, read-out: Percent Mortality at Day After treatment (DAT), 5 DAT.
Setting [6] is: 144 h, read-out: Percent Mortality at Day After treatment (DAT), 6 DAT.
Where [7] appears, read: 500 ppm applied to opposite leaf side, 2 DAT.
The mark [8] stands for this setting: 500 ppm applied to opposite leaf side, 3 DAT.
Setting [9] is: 500 ppm applied to opposite leaf side.
[10] abbreviates: 500 ppm applied to opposite leaf side, 6 DAT.
Setting [11] is: 500 ppm applied to opposite leaf side, 1 DAT.

For `CN1CCC=C(c2cnsn2)C1` [A, 3-[1-methyl(1,2,5,6-tetrahydropyrid-3-yl)]-1,2,5-thiadiazole], the mortality (usually the percentage killed) at 500 ppm in data set [1] (24 h, 500 ppm applied to opposite leaf side, 1 DAT, read-out: Percent Mortality at Day After treatment (DAT), 1 DAT) is below 50%; in data set [1] (48 h, 500 ppm applied to opposite leaf side, 2 DAT, read-out: Percent Mortality at Day After treatment (DAT), 2 DAT), below 50%; in data set [1] (72 h, 500 ppm applied to opposite leaf side, 3 DAT, read-out: Percent Mortality at Day After treatment (DAT), 3 DAT) it was below 50%; in data set [1] (96 h, 500 ppm applied to opposite leaf side, 4 DAT, read-out: Percent Mortality at Day After treatment (DAT), 4 DAT), below 50%; in data set [1] (144 h, 500 ppm applied to opposite leaf side, 6 DAT, read-out: Percent Mortality at Day After treatment (DAT), 6 DAT) it was below 50%.
Consider `CCc1noc(C2CN3CCC2C3)n1` (stereo not shown) [C, 5-(4-azabicyclo[2.2.1]hept-2-yl)-3-ethyl-1,2,4-oxadiazole], for which the mortality at 500 ppm in data set [1] (setting [2]), in data set [1] (setting [3]), in data set [1] (setting [4]), in data set [1] (setting [5]) and in data set [1] (setting [6]) was below 50% in each case.
As to `Cc1noc(C2C[N+]3([O-])CCC2C3)n1` (stereo not shown) [Compound 396, N-Oxide of 5-(4-azabicyclo[2.2.1]hept-2-yl)-3-methyl-1,2,4-oxadiazole], the “Percent Mortality at Day After treatment (DAT), 2 DAT” value in data set [1] (setting [7]) is given as “A (A is 80%-100% mortality when compared to the control)”. Also, in data set [1] (setting [8]), the “Percent Mortality at Day After treatment (DAT), 3 DAT” value (from here on “Percent Mortality … (DAT), 3 DAT”) is listed as “A (A is 80%-100% mortality when compared to the control)”. Also, the “Percent Mortality at Day After treatment (DAT), 5 DAT” value in data set [1] (setting [9]) is given as “A (A is 80%-100% mortality when compared to the control)”. In addition, the “Percent Mortality at Day After treatment (DAT), 6 DAT” value (shortened to “Percent Mortality … 6 DAT”) in data set [1] (setting [10]) is “A (A is 80%-100% mortality when compared to the control)”. Also, the “mortality throughout the seven-day test period” value in data set [1] (500 ppm, whole 7-day period) is 100%. For the same compound, the “Percent Mortality 3 DAT (greenhouse)” value in the data set with cotton aphid (Table 3, 224 g/ha) is 98%; with cotton aphid (Table 3, 560 g/ha), 100%; with cotton aphid (Table 3, 1120 g/ha), 100%. The “Percent Mortality 3 DAT (simulated sunlight)” value in the data set on cotton aphid (Table 3, 224 g/ha) is given as 99%; in the data set with cotton aphid (Table 3, 560 g/ha) it was 100%; with cotton aphid (Table 3, 1120 g/ha), 100%; in the data set on cotton aphid (Table 4, 56 g/ha), 58%; with cotton aphid (Table 4, 112 g/ha), 70%; in the data set on cotton aphid (Table 4, 224 g/ha), 98%. Further, the “Percent Mortality 0 DAT” value in the data set on cotton aphid (Table 3, 224 g/ha) amounted to 100%; in the data set with cotton aphid (Table 3, 560 g/ha) it was 100%; in the data set with cotton aphid (Table 3, 1120 g/ha), 100%; in the data set on cotton aphid (Table 4, 56 g/ha) it was 100%; with cotton aphid (Table 4, 112 g/ha), 100%; with cotton aphid (Table 4, 224 g/ha), 100%. Moreover, the “Percent Mortality 5 DAT (greenhouse)” value is 64% in the data set with cotton aphid (Table 4, 56 g/ha); 86% with cotton aphid (Table 4, 112 g/ha); 93% in the data set on cotton aphid (Table 4, 224 g/ha).
Turning to `CCc1noc(C2C[N+]3([O-])CCC2C3)n1` (stereo not shown) [Compound 397, N-Oxide of 5-(4-azabicyclo[2.2.1]hept-2-yl)-3-ethyl-1,2,4-oxadiazole], the “Percent Mortality at Day After treatment (DAT), 1 DAT” value in data set [1] (setting [11]) is “SA (SA is 50%-80% mortality when compared to the control)”. The “Percent Mortality … (DAT), 3 DAT” value in data set [1] (setting [8]) is on record as “SA (SA is 50%-80% mortality when compared to the control)”. Also, the “Percent Mortality at Day After treatment (DAT), 4 DAT” value in data set [1] (500 ppm applied to opposite leaf side, 4 DAT) is recorded as “SA (SA is 50%-80% mortality when compared to the control)”. Besides, the “Percent Mortality at Day After treatment (DAT), 5 DAT” value in data set [1] (setting [9]) is recorded as “SA (SA is 50%-80% mortality when compared to the control)”. Moreover, the “Percent Mortality … 6 DAT” value in data set [1] (setting [10]) is listed as “SA (SA is 50%-80% mortality when compared to the control)”.
On to `Cc1nnn(C2C[N+]3([O-])CCC2C3)n1` (stereo not shown) [Compound 402, N-Oxide of 2-(4-azabicyclo[2.2.1]heptyl-2-yl)-5-methyl-1,2,3,4-tetrazole], for which the “Percent Mortality at Day After treatment (DAT), 1 DAT” value in data set [1] (setting [11]) is given as “A (A is 80%-100% mortality when compared to the control)”. Besides, in data set [1] (setting [7]), the “Percent Mortality at Day After treatment (DAT), 2 DAT” value is given as “A (A is 80%-100% mortality when compared to the control)”. Also, the “Percent Mortality … (DAT), 3 DAT” value in data set [1] (setting [8]) is reported as “A (A is 80%-100% mortality when compared to the control)”. The “Percent Mortality … 6 DAT” value in data set [1] (setting [10]) is on record as “A (A is 80%-100% mortality when compared to the control)”. The “Percent Mortality at Day After treatment (DAT), 7 DAT” value in data set [1] (500 ppm applied to opposite leaf side, 7 DAT) is “A (A is 80%-100% mortality when compared to the control)”. The “Percent Mortality 3 DAT (simulated sunlight)” value in the data set with cotton aphid (Table 4, 56 g/ha) is reported as 50%; in the data set on cotton aphid (Table 4, 112 g/ha), 84%; in the data set on cotton aphid (Table 4, 224 g/ha) it was 92%. The “Percent Mortality 5 DAT (greenhouse)” value is 45% in the data set on cotton aphid (Table 4, 56 g/ha); 70% with cotton aphid (Table 4, 112 g/ha); 84% in the data set with cotton aphid (Table 4, 224 g/ha). The “Percent Mortality 0 DAT” value was 50% in the data set with cotton aphid (Table 4, 56 g/ha); 84% in the data set with cotton aphid (Table 4, 112 g/ha); 92% in the data set on cotton aphid (Table 4, 224 g/ha).
Take `Cc1nnn(C2C[N+]3([O-])CCC2CC3)n1` (stereo not shown) [Compound 407, N-Oxide of 5-methyl-2-quinuclidin-3-yl-1,2,3,4-tetraazole]: the mortality at 500 ppm in data set [1] (setting [2]) was below 50%; in data set [1] (setting [3]), 50 to 80%; in data set [1] (setting [4]), 50 to 80%; in data set [1] (setting [5]), 50 to 80%; in data set [1] (setting [6]), 50 to 80%.
`Cc1nnn([C@H]2CN3CC[C@H]2C3)n1` [D, 2-(4-azabicyclo[2.2.1]heptyl-2-yl)-5-methyl-1,2,3,4-tetrazole]: the mortality at 500 ppm in data set [1] (setting [6]) fell in the range of 50 to 80%; in data set [1] (168 h, read-out: Percent Mortality at Day After treatment (DAT), 7 DAT), 50 to 80%.
Consider `Cc1nnn(C2CN3CCC2CC3)n1` (stereo not shown) [E, 5-methyl-2-quinuclidin-3-yl-1,2,3,4-tetraazole], for which the mortality at 500 ppm in data set [1] (setting [2]), in data set [1] (setting [3]), in data set [1] (setting [4]), in data set [1] (setting [5]) and in data set [1] (setting [6]) was below 50% throughout.
